Measured values: the supplement of paper PMC11451515

Tested on: SEM cells
Experiment: cell viability relative to DMSO control; higher = less cytotoxic
Settings: 48 h
Method in brief: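 Before seeding, each leukemia line was adapted for at least four passages in each medium. NOMO1 or SEM cells (500 cells/well) and P12-Ichikawa cells (1000 cells/well) went into 1536-well plates at 5 μl, then received library compounds in DMSO by pin dosing across 11 threefold concentrations, 47 μM to 0.79 nM. Readout was CellTiter-Glo One luminescence after 48 h at 37°C, and viability is given as a per-plate percentage of DMSO wells, with cell-free wells as background.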

[1] = HPLM + 10% dialyzed FBS, 0.000781 µM
[2] = HPLM + 10% dialyzed FBS, 0.00234 µM
[3] = HPLM + 10% dialyzed FBS, 0.00702 µM
[4] = HPLM + 10% dialyzed FBS, 0.0211 µM
[5] = HPLM + 10% dialyzed FBS, 0.0632 µM
[6] = HPLM + 10% dialyzed FBS, 0.19 µM
[7] = HPLM + 10% dialyzed FBS, 0.569 µM
[8] = HPLM + 10% dialyzed FBS, 1.71 µM
[9] = HPLM + 10% dialyzed FBS, 5.12 µM
[10] = HPLM + 10% dialyzed FBS, 15.4 µM
[11] = HPLM + 10% dialyzed FBS, 46.1 µM
[12] = RPMI 5 mM glucose + 10% FBS, 0.000781 µM
[13] = RPMI 5 mM glucose + 10% FBS, 0.00234 µM
[14] = RPMI 5 mM glucose + 10% FBS, 0.00702 µM
[15] = RPMI 5 mM glucose + 10% FBS, 0.0211 µM
[16] = RPMI 5 mM glucose + 10% FBS, 0.0632 µM
[17] = RPMI 5 mM glucose + 10% FBS, 0.19 µM
[18] = RPMI 5 mM glucose + 10% FBS, 0.569 µM
[19] = RPMI 5 mM glucose + 10% FBS, 1.71 µM
[20] = RPMI 5 mM glucose + 10% FBS, 5.12 µM
[21] = RPMI 5 mM glucose + 10% FBS, 15.4 µM
[22] = RPMI 5 mM glucose + 10% FBS, 46.1 µM
[23] = RPMI 5 mM glucose + 10% dialyzed FBS, 0.000781 µM
[24] = RPMI 5 mM glucose + 10% dialyzed FBS, 0.00234 µM
[25] = RPMI 5 mM glucose + 10% dialyzed FBS, 0.00702 µM
[26] = RPMI 5 mM glucose + 10% dialyzed FBS, 0.0211 µM
[27] = RPMI 5 mM glucose + 10% dialyzed FBS, 0.0632 µM
[28] = RPMI 5 mM glucose + 10% dialyzed FBS, 0.19 µM
[29] = RPMI 5 mM glucose + 10% dialyzed FBS, 0.569 µM
[30] = RPMI 5 mM glucose + 10% dialyzed FBS, 1.71 µM
[31] = RPMI 5 mM glucose + 10% dialyzed FBS, 5.12 µM
[32] = RPMI 5 mM glucose + 10% dialyzed FBS, 15.4 µM
[33] = RPMI 5 mM glucose + 10% dialyzed FBS, 46.1 µM

| Structure (SMILES) | cell viability [1] [%] | cell viability [2] [%] | cell viability [3] [%] | cell viability [4] [%] | cell viability [5] [%] | cell viability [6] [%] | cell viability [7] [%] | cell viability [8] [%] | cell viability [9] [%] | cell viability [10] [%] | cell viability [11] [%] | cell viability [12] [%] | cell viability [13] [%] | cell viability [14] [%] | cell viability [15] [%] | cell viability [16] [%] | cell viability [17] [%] | cell viability [18] [%] | cell viability [19] [%] | cell viability [20] [%] | cell viability [21] [%] | cell viability [22] [%] | cell viability [23] [%] | cell viability [24] [%] | cell viability [25] [%] | cell viability [26] [%] | cell viability [27] [%] | cell viability [28] [%] | cell viability [29] [%] | cell viability [30] [%] | cell viability [31] [%] | cell viability [32] [%] | cell viability [33] [%] |
| --- | --- | --- | --- | --- | --- | --- | --- | --- | --- | --- | --- | --- | --- | --- | --- | --- | --- | --- | --- | --- | --- | --- | --- | --- | --- | --- | --- | --- | --- | --- | --- | --- | --- |
| CN(C)CCOc1cc(-c2cn[nH]c2)ccc1NC(=O)C1COc2ccccc2O1 (stereo not given) | 87.1 | 84.6 | 101 | 105 | 106 | 106 | 98.5 | 102 | 80.1 | 71.7 | 56.2 | 101 | 95 | 108 | 94.9 | 118 | 90.7 | 103 | 96 | 105 | 69.3 | 61.3 | 107 | 101 | 110 | 108 | 94.6 | 104 | 93.1 | 102 | 98.3 | 71.8 | 68.9 |
| COc1cc2c(cc1-c1c(C)noc1C)ncc1[nH]c(=O)n([C@H](C)c3ccccn3)c12 | – | – | – | – | – | – | – | – | – | – | – | 117 | 106 | 140 | 120 | 119 | 114 | 102 | 65.4 | 8.34 | 6.3 | 3.15 | 101 | 94.8 | 110 | 119 | 101 | 96.1 | 76.5 | 49.7 | 6.42 | 6.4 | 3.1 |
| CCN(CC)CC#CCOC(=O)C(O)(c1ccccc1)C1CCCCC1 (stereo not given) | 108 | 109 | 98.1 | 92.4 | 115 | 111 | 124 | 121 | 105 | 129 | 98.5 | 108 | 117 | 126 | 80 | 115 | 121 | 118 | 120 | 125 | 104 | 102 | 117 | 112 | 145 | 83.3 | 126 | 132 | 142 | 120 | 135 | 129 | 99.3 |
| CC(C)(C)c1cc(NC(=O)Nc2ccc(-c3cn4c(n3)sc3cc(OCCN5CCOCC5)ccc34)cc2)no1 | 66.8 | 53.7 | 45.8 | 44.3 | 32.2 | 38.2 | 46.6 | 30 | 30.1 | 26.1 | 27.8 | 80.9 | 61.9 | 67.7 | 49.8 | 42.1 | 46.3 | 49.3 | 38.9 | 43.4 | 33.5 | 27.8 | 74.2 | 49.4 | 51.3 | 36.6 | 30.4 | 36 | 31.3 | 33.6 | 27.5 | 23.5 | 24.6 |
| COC(=O)Nc1nc2cc(C(=O)c3cccs3)ccc2[nH]1 | 102 | 71.5 | 94.1 | 48.1 | 28.1 | 30.4 | 24.9 | 28 | 25.8 | 28.9 | 19.8 | 95.6 | 46.7 | 88 | 37 | 15.3 | 15.1 | 17.5 | 14.8 | 13.9 | 14.3 | 14.2 | 111 | 69 | 94.4 | 51.8 | 24.7 | 25.5 | 22.3 | 27.2 | 26 | 26.6 | 22.2 |
| CN(C)c1ccc(O)c2c1C[C@H]1C[C@H]3[C@H](N(C)C)C(O)=C(C(N)=O)C(=O)[C@@]3(O)C(O)=C1C2=O | 97.4 | 98.3 | 93.9 | 108 | 107 | 103 | 91.9 | 104 | 104 | 107 | 118 | 98.3 | 103 | 93.8 | 96.4 | 114 | 108 | 105 | 110 | 103 | 93.5 | 106 | 106 | 119 | 106 | 106 | 105 | 106 | 115 | 122 | 114 | 107 | 104 |
| CNC1CCC(N(Cc2cccc(-c3ccncc3)c2)C(=O)c2sc3ccccc3c2Cl)CC1 (stereo not given) | 86.2 | 93.2 | 104 | 90.6 | 87.9 | 105 | 95.5 | 25.6 | 4.92 | 3.48 | 2.45 | 90.1 | 83.7 | 100 | 114 | 88.5 | 97.4 | 18.2 | 6.65 | 5.64 | 3.32 | 1.88 | 76.6 | 82.9 | 95.5 | 98.5 | 77.7 | 99.1 | 81.6 | 6.38 | 5.65 | 3.68 | 2.48 |
| CC\1=C/C=C\C=[N]1[Pt](N)(Cl)Cl | 82 | 79.2 | 91.4 | 96.5 | 102 | 84.1 | 89.5 | 89 | 98.1 | 83.6 | 85.1 | 99.2 | 119 | 126 | 108 | 119 | 124 | 114 | 109 | 110 | 120 | 58 | 80.5 | 90.5 | 97.1 | 100 | 98.1 | 91.4 | 87.3 | 83 | 91.5 | 79.5 | 55.9 |
| OC1=CC=C(C=C1)\C2=C\OC3=C(C=CC(=C3)O)C2=O | 102 | 96.6 | 103 | 109 | 114 | 102 | 104 | 102 | 108 | 101 | 94.5 | 100 | 89.9 | 109 | 104 | 107 | 96.5 | 99.4 | 104 | 112 | 96.7 | 104 | 96.7 | 97.1 | 109 | 118 | 101 | 101 | 107 | 112 | 110 | 101 | 104 |
| O=NN(CCCl)C(=O)NC1CCCCC1 | 84.7 | 94.3 | 94.3 | 89.2 | 91.5 | 101 | 111 | 90.8 | 89.9 | 89.3 | 86.7 | 114 | 117 | 113 | 103 | 126 | 93.7 | 122 | 121 | 132 | 109 | 101 | 81.3 | 86.1 | 87.5 | 88.3 | 89.3 | 92.2 | 98.9 | 104 | 101 | 100 | 70.8 |
| CC1=CC=CC=C1N2\C(=N/C3=C(C(=CC=C3)C)C2=O)C[N]4C=NC5=C4N=CN=C5N | 97.1 | 110 | 115 | 92.6 | 83.8 | 77.7 | 67.3 | 72.1 | 49.6 | 46.6 | 37.2 | 90.8 | 93 | 94.3 | 65.9 | 83.4 | 62.1 | 59.4 | 54.8 | 45 | 34.4 | 20.8 | 93.2 | 112 | 120 | 84.3 | 90 | 77.5 | 68.1 | 64.8 | 53.5 | 46.2 | 33.8 |
| COc1nccc(-c2c(-c3ccc(F)cc3)ncn2C2CCNCC2)n1 | 98.2 | 114 | 120 | 107 | 120 | 114 | 113 | 110 | 102 | 98.7 | 81.7 | – | – | – | – | – | – | – | – | – | – | – | 69.4 | 117 | 144 | 113 | 116 | 114 | 104 | 126 | 110 | 95.8 | 79.5 |
| CCCCCCCCCCCCCCCCCCCCCCO | 104 | 95 | 119 | 116 | 110 | 110 | 111 | 127 | 87.8 | 123 | 132 | 122 | 113 | 135 | 133 | 129 | 146 | 153 | 156 | 98.4 | 138 | 155 | 102 | 98.1 | 120 | 123 | 118 | 115 | 118 | 132 | 87 | 116 | 138 |
| CC(=O)Nc1ccc(OC[C@](C)(O)C(=O)Nc2ccc([N+](=O)[O-])c(C(F)(F)F)c2)cc1 | 67.5 | 59.4 | 69 | 75.9 | 68.9 | 72.8 | 77.1 | 84 | 83.4 | 82.3 | 54.8 | 81.6 | 78.3 | 77.8 | 103 | 80.8 | 80.2 | 88.8 | 90.4 | 81.8 | 93.7 | 44.7 | 79.9 | 79 | 84.8 | 108 | 86.7 | 97.5 | 88.7 | 93.8 | 71 | 91.7 | 48 |
| CC1(C)Cc2c(-c3ccccc3)c(-c3ccc(Cl)cc3)c(CC(=O)O)n2C1 | 116 | 124 | 116 | 129 | 126 | 106 | 124 | 91.9 | 124 | 112 | 95.1 | 116 | 120 | 129 | 122 | 110 | 96.3 | 105 | 92.8 | 110 | 101 | 90.7 | – | – | – | – | – | – | – | – | – | – | – |
| CC(NC1=CC=CC=C1)C\2=C\C(=C/N3C(=O)\C=C(/N=C23)N4CCOCC4)C (stereo not given) | 96.9 | 86.4 | 108 | 99.1 | 101 | 108 | 107 | 108 | 103 | 97.3 | 86.5 | 99.1 | 101 | 117 | 126 | 103 | 101 | 128 | 119 | 117 | 101 | 12.2 | 95.3 | 79.7 | 113 | 106 | 94.3 | 73.8 | 101 | 110 | 98.3 | 87.3 | 53.8 |
